# Measured values reported in patent publication US12594267B2, “Capsid inhibitors for the treatment of HIV” (Gilead Sciences, Inc., priority 2018, dated 2026).
# Assay: PK after subcutaneous administration of solutions in dogs
# Type: in vivo, Beagle dog
# Protocol: Formulations containing the compound of Formula (Ia) were prepared as aqueous solutions or oral formulations and administered subcutaneously to rats, dogs, cynomolgus monkey, and/or rhesus monkey.
# A solution of the compound of Formula (Ia) in 10% ethanol, 13% water, and 77% PEG 200 (400 mg/mL) was prepared. The solution was administered subcutaneously to dogs at a dose of 12 mg/kg and rats at a dose of 50 mg/kg and the pharmacokinetic (PK) profile was determined. […] In both species, plasma concentrations of the compound of Formula (Ia) were maintained above the target trough concentration of 20 nM (corresponding to an IQ of 5) for at least 84 days (12 weeks).
# A solution of the compound of Formula (Ia) in 15% water and 85.0 PEG 300 (400 mg/mL) was prepared. The solution was administered subcutaneously to male beagle dogs at a dose level of 12 mg/kg and dose volume of […] and the pharmacokinetic (PK) profile was determined.
# A solution of the compound of Formula (a) sodium salt in water and 300 (300 mg/mL) was prepared that contained 22.6% water/50% PEG 300/1.1% NaOH/26.3% Formula (Ia). The solution was administered subcutaneously to male beagle dogs at a dose level of 12 mg/kg and dose volume of […] and the pharmacokinetic (PK) profile was determined.
# A 300 mg/ml solution of a compound of Formula (Ia) having 9.8 w/w % water, 65.0 w/w % PEG 300, and 25.2 w/w % of the compound of Formula (Ia) was prepared. The solution was administered subcutaneously to rats at a dose of 50 mg/kg and to dogs at a dose of 12 mg/kg and the pharmacokinetic (PK) profile was determined. […] In the rat, plasma concentrations of the compound of Formula (Ia) were maintained above the target trough concentration of 20 nM for at least 168 days (24 weeks). In the dog, plasma concentrations of the compound of Formula (Ia) were maintained above the target trough concentration of 20 nM for at least 84 days (12 weeks).
# (§1) A 150 mg/ml solution of a compound of Formula (Ia) having 27.92 w/w % water, 58.04 w/w % PEG 300, 13.47 w/w % of a compound of Formula (Ia), and 1.1 w/w % NaOH was prepared. The solution was administered subcutaneously to rats at a dose of 50 mg/kg and to dogs at a dose of 12 mg/kg and the pharmacokinetic (PK) profile was determined. […] In the rat, plasma concentrations of the compound of Formula (Ia) were maintained above the target trough concentration of 20 nM for at least 126 days (18 weeks). In the dog, plasma concentrations of the compound of Formula (Ia) were maintained above the target trough concentration of 20 nM for at least 56 days (8 weeks).
# as §1, with “300” for “150”, “23.2” for “27.92”, “50.0” for “58.04”, “25.7” for “13.47”
# A 50 mg/ml solution of a compound of Formula (Ia) having 30.07 w/w % water, 64.40 w/w % PEG 300, 4.68 w/w % of a sodium salt of the compound of Formula (Ia), and 0.85 w/w % poloxamer 188 was prepared. The solution was administered subcutaneously to rats at a dose of 50 mg/kg and to dogs at a dose of 6 mg/kg and the pharmacokinetic (PK) profile was determined. […] In the rat, plasma concentrations of the compound of Formula (Ia) were maintained above the target trough concentration of 20 nM for at least 28 days (4 weeks). In the dog, plasma concentrations of the compound of Formula (Ia) were maintained above the target trough concentration of 20 nM for at least 14 days (2 weeks). […]
# [1] = beagle, dog, plasma, sc, 12 mg/kg, SC 12 mg/kg, 400 mg/mL solution in 10% ethanol, 13% water, 77% PEG 200, mean ± SD, n=3
# [2] = dog, SC 12 mg/kg, 150 mg/mL solution (w/w %: 27.92 water, 58.04 PEG 300, 13.47 Formula (Ia), 1.1 NaOH), mean ± SD, n=3
structure (smiles),measurement,setting,value
"CC(C)(C#Cc1ccc(-c2ccc(Cl)c3c(NS(C)(=O)=O)nn(CC(F)(F)F)c23)c([C@H](Cc2cc(F)cc(F)c2)NC(=O)Cn2nc(C(F)(F)F)c3c2C(F)(F)[C@@H]2C[C@H]32)n1)S(C)(=O)=O [Formula (Ia), N—((S)-1-(3-(4-chloro-3-(methylsulfonamido)-1-(2,2,2-trifluoroethyl)-1H-indazol-7-yl)-6-(3-methyl-3-(methylsulfonyl)but-1-yn-1-yl)pyridin-2-yl)-2-(3,5-difluorophenyl)ethyl)-2-((3bS,4aR)-5,5-difluoro-3-(trifluoromethyl)-3b,4,4a,5-tetrahydro-1H-cyclopropa[3,4]cyclopenta[1,2-c]pyrazol-1-yl)acetamide]",AUC(0-t),"beagle, dog, plasma, sc, 12 mg/kg, dog, SC 12 mg/kg, 400 mg/mL solution in 10% ethanol, 13% water, 77% PEG 200, mean ± SD, n=3, read-out: AUC0-140d",111 ± 14 µM·h
same,concentration at 84 d,"beagle, dog, plasma, sc, 12 mg/kg, dog, SC 12 mg/kg, 400 mg/mL solution in 10% ethanol, 13% water, 77% PEG 200, mean ± SD, n=3, read-out: C84d",23.4 ± 5.7 nM
same,Cmax,[1],107 ± 13 nM
same,Tmax,[1],14 days
same,Plasma concentration,"dog #1, 0 h, SC 12 mg/kg, 400 mg/mL in 15% water/85% PEG 300",BLQ
same,Plasma concentration,"dog #1, 1.0 h, SC 12 mg/kg, 400 mg/mL in 15% water/85% PEG 300",BLQ
same,Plasma concentration,"dog #2, 0 h, SC 12 mg/kg, 400 mg/mL in 15% water/85% PEG 300",BLQ
same,Plasma concentration,"dog #3, 0 h, SC 12 mg/kg, 400 mg/mL in 15% water/85% PEG 300",BLQ
same,Time plasma concentrations maintained above the target trough concentration of 20 nM,"dog, SC 6 mg/kg, 50 mg/mL solution (w/w %: 30.07 water, 64.40 PEG 300, 4.68 sodium salt of Formula (Ia), 0.85 poloxamer 188)",at least 14 days
same,Time plasma concentrations maintained above the target trough concentration of 20 nM,"dog, SC 6 mg/kg, 75 mg/mL solution (w/w %: 29.21 water, 62.55 PEG 300, 6.97 sodium salt of Formula (Ia), 1.68 poloxamer 188)",at least 21 days
same,Time plasma concentrations maintained above the target trough concentration of 20 nM,"dog, SC 6 mg/kg, 100 mg/mL solution (w/w %: 28.36 water, 60.73 PEG 300, 9.23 sodium salt of Formula (Ia), 1.68 poloxamer 188)",at least 14 days
same,AUC0-14d,"dog, SC 6 mg/kg, 100 mg/mL solution (w/w %: 28.36 water, 60.73 PEG 300, 9.23 sodium salt of Formula (Ia), 1.68 poloxamer 188), mean ± SD, n=3",104 ± 26 µM·h
same,Time plasma concentrations maintained above the target trough concentration of 20 nM,"dog, SC 6 mg/kg, 125 mg/mL solution (w/w %: 27.51 water, 58.92 PEG 300, 11.48 sodium salt of Formula (Ia), 2.09 poloxamer 188)",at least 14 days
same,Time plasma concentrations maintained above the target trough concentration of 20 nM,"dog, SC 6 mg/kg, 150 mg/mL solution (w/w %: 26.6 water, 56.97 PEG 300, 13.39 Formula (Ia), 0.57 NaOH, 2.49 poloxamer 188)",at least 56 days
same,Time plasma concentrations maintained above the target trough concentration of 20 nM,"dog, SC 6 mg/kg, 300 mg/mL solution (w/w %: 21.97 water, 47.05 PEG 300, 25.21 Formula (Ia), 1.08 NaOH, 4.69 poloxamer 188)",at least 56 days
same,AUC0-84d,"dog, SC 6 mg/kg, 300 mg/mL solution (w/w %: 21.97 water, 47.05 PEG 300, 25.21 Formula (Ia), 1.08 NaOH, 4.69 poloxamer 188), mean ± SD, n=3",65.4 ± 21.5 µM·h
same,Time plasma concentrations maintained above the target trough concentration of 20 nM,"dog, SC 12 mg/kg, 150 mg/mL solution (w/w %: 27.92 water, 58.04 PEG 300, 13.47 Formula (Ia), 1.1 NaOH)",at least 56 days
same,AUC0-28d,[2],137.0 ± 38 µM·h
same,AUC0-126d,[2],196 ± 31 µM·h
same,Time plasma concentrations maintained above the target trough concentration of 20 nM,"dog, SC 12 mg/kg, 300 mg/mL solution (w/w %: 9.8 water, 65.0 PEG 300, 25.2 Formula (Ia))",at least 84 days
same,Time plasma concentrations maintained above the target trough concentration of 20 nM,"dog, SC 12 mg/kg, 300 mg/mL solution (w/w %: 23.2 water, 50.0 PEG 300, 25.7 Formula (Ia), 1.1 NaOH)",at least 56 days
same,Time plasma concentrations maintained above the target trough concentration of 20 nM,"dog, SC 12 mg/kg, 400 mg/mL solution in 10% ethanol, 13% water, 77% PEG 200",at least 84 days
same,concentration at 3 h,"male, beagle, dog, plasma, sc, 12 mg/kg, dog #1, 3.0 h, SC 12 mg/kg, 400 mg/mL in 15% water/85% PEG 300",1.2 nM
same,concentration at 8 h,"male, beagle, dog, plasma, sc, 12 mg/kg, dog #1, 8.0 h, SC 12 mg/kg, 400 mg/mL in 15% water/85% PEG 300",10.6 nM
same,concentration at 24 h,"male, beagle, dog, plasma, sc, 12 mg/kg, dog #1, 24.0 h, SC 12 mg/kg, 400 mg/mL in 15% water/85% PEG 300",19.8 nM
same,concentration at 48 h,"male, beagle, dog, plasma, sc, 12 mg/kg, dog #1, 48.0 h, SC 12 mg/kg, 400 mg/mL in 15% water/85% PEG 300",54.6 nM
same,concentration at 72 h,"male, beagle, dog, plasma, sc, 12 mg/kg, dog #1, 72.0 h, SC 12 mg/kg, 400 mg/mL in 15% water/85% PEG 300",62.8 nM
same,concentration at 96 h,"male, beagle, dog, plasma, sc, 12 mg/kg, dog #1, 96.0 h, SC 12 mg/kg, 400 mg/mL in 15% water/85% PEG 300",58.9 nM
same,concentration at 168 h,"male, beagle, dog, plasma, sc, 12 mg/kg, dog #1, 168 h, SC 12 mg/kg, 400 mg/mL in 15% water/85% PEG 300",71.9 nM
